{
  "source": "paper PMC10042540",
  "about": "“Targeting oncogenic KRasG13C with nucleotide-based covalent inhibitors” (eLife, 2023)",
  "experiment_in_all_cases": "Electroporation into HeLa cells, western blot quantification",
  "type_in_all_cases": "cell-based, human",
  "key": {"[1]": {"tested_on": "pcRafS338", "settings": "for pcRaf mean fold change: mean of cell lysates", "how_it_was_run": "(§1)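 HeLa cells electroporated (2×35 ms, 1000 V) with 0–300 µg recombinant full-length KRas WT or G13C constructs, washed, then recovered for 24 h at 37 °C. Lysates (10 µg protein) analysed by SDS-PAGE and fluorescent western blotting, with protein levels quantified from blot signal.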"}, "[2]": {"tested_on": "pS6S235/236", "settings": "for pS6 mean fold change: mean of cell lysates", "how_it_was_run": "as §1"}, "[3]": {"tested_on": "pAktS473", "settings": "for pAkt mean fold change: mean of cell lysates", "how_it_was_run": "as §1"}, "[4]": {"tested_on": "tErk", "settings": "for tErk mean fold change: mean of cell lysates", "how_it_was_run": "as §1"}},
  "data": [
    {"substance": "KRasG13C-edaGDP: KRasG13C covalently locked with edaGDP at Cys13", "values": [
      {"measurement": "pcRaf fold change", "setting": "[1]; 50 µg, Cell lysate 1", "result": 0.75},
      {"measurement": "pcRaf fold change", "setting": "[1]; 50 µg, Cell lysate 2", "result": 1.33},
      {"measurement": "pcRaf fold change", "setting": "[1]; 50 µg, Cell lysate 3", "result": 0.84},
      {"measurement": "pcRaf mean fold change", "setting": "[1]; 50 µg", "result": 0.97},
      {"measurement": "pcRaf fold change", "setting": "[1]; 100 µg, Cell lysate 1", "result": 0.89},
      {"measurement": "pcRaf fold change", "setting": "[1]; 100 µg, Cell lysate 2", "result": 0.78},
      {"measurement": "pcRaf fold change", "setting": "[1]; 100 µg, Cell lysate 3", "result": 1.40},
      {"measurement": "pcRaf mean fold change", "setting": "[1]; 100 µg", "result": 1.02},
      {"measurement": "pcRaf fold change", "setting": "[1]; 200 µg, Cell lysate 1", "result": 0.74},
      {"measurement": "pcRaf fold change", "setting": "[1]; 200 µg, Cell lysate 2", "result": 0.88},
      {"measurement": "pcRaf fold change", "setting": "[1]; 200 µg, Cell lysate 3", "result": 1.21},
      {"measurement": "pcRaf mean fold change", "setting": "[1]; 200 µg", "result": 0.94},
      {"measurement": "pcRaf fold change", "setting": "[1]; 300 µg, Cell lysate 1", "result": 0.57},
      {"measurement": "pcRaf fold change", "setting": "[1]; 300 µg, Cell lysate 2", "result": 0.97},
      {"measurement": "pcRaf fold change", "setting": "[1]; 300 µg, Cell lysate 3", "result": 1.13},
      {"measurement": "pcRaf mean fold change", "setting": "[1]; 300 µg", "result": 0.89},
      {"measurement": "pS6 fold change", "setting": "[2]; 50 µg, Cell lysate 1", "result": 0.80},
      {"measurement": "pS6 fold change", "setting": "[2]; 50 µg, Cell lysate 2", "result": 1.31},
      {"measurement": "pS6 fold change", "setting": "[2]; 50 µg, Cell lysate 3", "result": 0.76},
      {"measurement": "pS6 mean fold change", "setting": "[2]; 50 µg", "result": 0.96},
      {"measurement": "pS6 fold change", "setting": "[2]; 100 µg, Cell lysate 1", "result": 0.91},
      {"measurement": "pS6 fold change", "setting": "[2]; 100 µg, Cell lysate 2", "result": 1.13},
      {"measurement": "pS6 fold change", "setting": "[2]; 100 µg, Cell lysate 3", "result": 0.75},
      {"measurement": "pS6 mean fold change", "setting": "[2]; 100 µg", "result": 0.93},
      {"measurement": "pS6 fold change", "setting": "[2]; 200 µg, Cell lysate 1", "result": 1.23},
      {"measurement": "pS6 fold change", "setting": "[2]; 200 µg, Cell lysate 2", "result": 1.03},
      {"measurement": "pS6 fold change", "setting": "[2]; 200 µg, Cell lysate 3", "result": 0.88},
      {"measurement": "pS6 mean fold change", "setting": "[2]; 200 µg", "result": 1.05},
      {"measurement": "pS6 fold change", "setting": "[2]; 300 µg, Cell lysate 1", "result": 0.98},
      {"measurement": "pS6 fold change", "setting": "[2]; 300 µg, Cell lysate 2", "result": 0.98},
      {"measurement": "pS6 fold change", "setting": "[2]; 300 µg, Cell lysate 3", "result": 0.76},
      {"measurement": "pS6 mean fold change", "setting": "[2]; 300 µg", "result": 0.91},
      {"measurement": "pAkt fold change", "setting": "[3]; 50 µg, Cell lysate 1", "result": 0.89},
      {"measurement": "pAkt fold change", "setting": "[3]; 50 µg, Cell lysate 2", "result": 1.23},
      {"measurement": "pAkt mean fold change", "setting": "[3]; 50 µg", "result": 0.54},
      {"measurement": "pAkt fold change", "setting": "[3]; 100 µg, Cell lysate 1", "result": 0.28},
      {"measurement": "pAkt fold change", "setting": "[3]; 100 µg, Cell lysate 2", "result": 0.69},
      {"measurement": "pAkt fold change", "setting": "[3]; 100 µg, Cell lysate 3", "result": 1.01},
      {"measurement": "pAkt mean fold change", "setting": "[3]; 100 µg", "result": 0.66},
      {"measurement": "pAkt fold change", "setting": "[3]; 200 µg, Cell lysate 1", "result": 0.45},
      {"measurement": "pAkt fold change", "setting": "[3]; 200 µg, Cell lysate 2", "result": 0.95},
      {"measurement": "pAkt fold change", "setting": "[3]; 200 µg, Cell lysate 3", "result": 0.56},
      {"measurement": "pAkt mean fold change", "setting": "[3]; 200 µg", "result": 0.65},
      {"measurement": "pAkt fold change", "setting": "[3]; 300 µg, Cell lysate 1", "result": 0.63},
      {"measurement": "pAkt fold change", "setting": "[3]; 300 µg, Cell lysate 2", "result": 0.97},
      {"measurement": "pAkt fold change", "setting": "[3]; 300 µg, Cell lysate 3", "result": 1.17},
      {"measurement": "pAkt mean fold change", "setting": "[3]; 300 µg", "result": 0.92},
      {"measurement": "tErk fold change", "setting": "[4]; 50 µg, Cell lysate 1", "result": 0.84},
      {"measurement": "tErk fold change", "setting": "[4]; 50 µg, Cell lysate 2", "result": 2.08},
      {"measurement": "tErk fold change", "setting": "[4]; 50 µg, Cell lysate 3", "result": 0.64},
      {"measurement": "tErk mean fold change", "setting": "[4]; 50 µg", "result": 1.19},
      {"measurement": "tErk fold change", "setting": "[4]; 100 µg, Cell lysate 1", "result": 0.91},
      {"measurement": "tErk fold change", "setting": "[4]; 100 µg, Cell lysate 2", "result": 1.86},
      {"measurement": "tErk fold change", "setting": "[4]; 100 µg, Cell lysate 3", "result": 0.78},
      {"measurement": "tErk mean fold change", "setting": "[4]; 100 µg", "result": 1.18},
      {"measurement": "tErk fold change", "setting": "[4]; 200 µg, Cell lysate 1", "result": 1.12},
      {"measurement": "tErk fold change", "setting": "[4]; 200 µg, Cell lysate 2", "result": 1.76},
      {"measurement": "tErk fold change", "setting": "[4]; 200 µg, Cell lysate 3", "result": 0.74},
      {"measurement": "tErk mean fold change", "setting": "[4]; 200 µg", "result": 1.21},
      {"measurement": "tErk fold change", "setting": "[4]; 300 µg, Cell lysate 1", "result": 1.26},
      {"measurement": "tErk fold change", "setting": "[4]; 300 µg, Cell lysate 2", "result": 1.23},
      {"measurement": "tErk fold change", "setting": "[4]; 300 µg, Cell lysate 3", "result": 0.72},
      {"measurement": "tErk mean fold change", "setting": "[4]; 300 µg", "result": 1.07}
    ]}
  ]
}
